This note sets out measurements from patent US9376425B2, “Heterocyclic compounds as MDM2 inhibitors for the treatment of cancer” (AMGEN INC., priority 2011, dated 2016).

T1 sequence (Q00987 1-188): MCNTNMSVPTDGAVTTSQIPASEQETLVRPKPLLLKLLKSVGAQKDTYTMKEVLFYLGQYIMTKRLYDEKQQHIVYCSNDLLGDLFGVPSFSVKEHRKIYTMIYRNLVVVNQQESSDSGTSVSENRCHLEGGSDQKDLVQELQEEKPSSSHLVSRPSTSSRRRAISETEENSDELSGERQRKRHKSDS

The test concerns the target T1, human MDM2 (GST-hMDM2 1-188), interaction with biotinylated-p53 (1-83) (Homo sapiens, UniProt Q00987).
T1 construct: Amino acid residues 1-188 of human MDM2 were expressed; made in house; host or cells: Escherichia coli
Description: improved HTRF assay (HTRF2 assay), inhibition of HDM2-p53 interaction. The test is classed as binding. Conditions: 0.2 nM GST-hMDM2, 0.5 nM biotinylated-p53, 100 mM KF. In outline: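 GST-hMDM2 preincubated 20 min at RT with serially diluted compound, then biotinylated p53 (1-83, E. coli) added for 60 min. Detection with SA-XLent, anti-GST cryptate and KF, equilibrated >4 h; final DMSO 2%. TR-FRET read; % inhibition calculated relative to nutlin-3.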
Consider `C[C@]1(CC(=O)O)O[C@H](c2cccc(Cl)c2)[C@@H](c2ccc(Cl)cc2)N([C@H](CN(c2ccccc2F)S(=O)(=O)C2CC2)C2CC2)C1=O` (single isomer, unassigned) [Example 332, 2-((2R,5R,6R)-6-(3-Chlorophenyl)-5-(4-chlorophenyl)-4-((S)-1-cyclopropyl-2-(N-(2-fluorophenyl)cyclopropanesulfonamido)ethyl)-2-methyl-3-oxomorpholin-2-yl)acetic acid or 2-((2S,5R,6R)-6-(3-chlorophenyl)-5-(4-chlorophenyl)-4-((S)-1-cyclopropyl-2-(N-(2-fluorophenyl)cyclopropanesulfonamido)ethyl)-2-methyl-3-oxomorpholin-2-yl)acetic acid], for which the IC50 is 27 nM. Next, `CC[C@@H](CS(=O)(=O)C1CCOCC1)N1C(=O)[C@@H](CC(=O)O)O[C@H](c2cccc(Cl)c2)[C@H]1c1ccc(Cl)cc1` (single isomer, unassigned) [Example 187, 2-((2R,5R,6R)-6-(3-chlorophenyl)-5-(4-chlorophenyl)-3-oxo-4-((S)-1-((tetrahydro-2H-pyran-4-yl)sulfonyl)butan-2-yl)morpholin-2-yl)acetic acid or 2-((2S,5R,6R)-6-(3-chlorophenyl)-5-(4-chlorophenyl)-3-oxo-4-((S)-1-((tetrahydro-2H-pyran-4-yl)sulfonyl)butan-2-yl)morpholin-2-yl)acetic acid]: 2 nM; `CC(C)(C)S(=O)(=O)C[C@H](C1CC1)N1C(=O)[C@@H](CC(=O)O)O[C@H](c2ccc(Cl)c(Cl)c2)[C@H]1c1ccc(Cl)cc1` (single isomer, unassigned) [Example 318, 2-((2R,5R,6R)-4-((S)-2-(tert-Butylsulfonyl)-1-cyclopropylethyl)-5-(4-chlorophenyl)-6-(3,4-dichlorophenyl)-3-oxomorpholin-2-yl)acetic acid or 2-((2S,5R,6R)-4-((S)-2-(tert-butylsulfonyl)-1-cyclopropylethyl)-5-(4-chlorophenyl)-6-(3,4-dichlorophenyl)-3-oxomorpholin-2-yl)acetic acid]: 8 nM.

`CC(C)(C)S(=O)(=O)C[C@H](CC(F)(F)F)N1C(=O)[C@@](C)(CC(=O)O)O[C@H](c2cccc(Cl)c2)[C@H]1c1ccc(Cl)cc1` (single isomer, unassigned) [Example 340, 2-((2R,5R,6R)-4-((S)-1-(tert-Butylsulfonyl)-4,4,4-trifluorobutan-2-yl)-6-(3-chlorophenyl)-5-(4-chlorophenyl)-2-methyl-3-oxomorpholin-2-yl)acetic acid or 2-((2S,5R,6R)-4-((S)-1-(tert-butylsulfonyl)-4,4,4-trifluorobutan-2-yl)-6-(3-chlorophenyl)-5-(4-chlorophenyl)-2-methyl-3-oxomorpholin-2-yl)acetic acid] showed a 50% inhibitory concentration (IC50) of 28 nM. With `O=C(O)C[C@H]1O[C@H](c2cccc(Cl)c2)[C@@H](c2ccc(Cl)cc2)N([C@H](CN(c2ccccc2F)S(=O)(=O)C2CC2)C2CC2)C1=O` (single isomer, unassigned) [Example 158, 2-((2R,5R,6R)-6-(3-chlorophenyl)-5-(4-chlorophenyl)-4-((S)-1-cyclopropyl-2-(N-(2-fluorophenyl)cyclopropanesulfonamido)ethyl)-3-oxomorpholin-2-yl)acetic acid or 2-((2S,5R,6R)-6-(3-chlorophenyl)-5-(4-chlorophenyl)-4-((S)-1-cyclopropyl-2-(N-(2-fluorophenyl)cyclopropanesulfonamido)ethyl)-3-oxomorpholin-2-yl)acetic acid] the figure was less than 1 nM; with `O=C(O)C[C@H]1O[C@H](c2cccc(Cl)c2)[C@@H](c2ccc(Cl)cc2)N([C@H](CN(c2c(F)cccc2F)S(=O)(=O)C2CC2)C2CC2)C1=O` (single isomer, unassigned) [Example 251, 2-((2R,5R,6R)-6-(3-chlorophenyl)-5-(4-chlorophenyl)-4-((S)-1-cyclopropyl-2-(N-(2,6-difluorophenyl)cyclopropanesulfonamido)ethyl)-3-oxomorpholin-2-yl)acetic acid or 2-((2S,5R,6R)-6-(3-chlorophenyl)-5-(4-chlorophenyl)-4-((S)-1-cyclopropyl-2-(N-(2,6-difluorophenyl)cyclopropanesulfonamido)ethyl)-3-oxomorpholin-2-yl)acetic acid], less than 1 nM; with `CC[C@@H](CN(c1ccccc1F)S(=O)(=O)C1CC1)N1C(=O)[C@@H]([C@@H](C)C(=O)O)O[C@H](c2cccc(Cl)c2)[C@H]1c1ccc(Cl)cc1` (single isomer, unassigned) [Example 254], 1 nM. With `O=C1[C@@H](Cc2cnn[nH]2)O[C@H](c2cccc(Cl)c2)[C@@H](c2ccc(Cl)cc2)N1[C@H](CN(c1ccccc1F)S(=O)(=O)C1CC1)C1CC1` (single isomer, unassigned) [Example 394, N-((S)-2-((2R,5R,6R)-2-((1H-1,2,3-Triazol-5-yl)methyl)-6-(3-chlorophenyl)-5-(4-chlorophenyl)-3-oxomorpholino)-2-cyclopropylethyl)-N-(2-fluorophenyl)cyclopropanesulfonamide or N-((S)-2-((2S,5R,6R)-2-((1H-1,2,3-triazol-5-yl)methyl)-6-(3-chlorophenyl)-5-(4-chlorophenyl)-3-oxomorpholino)-2-cyclopropylethyl)-N-(2-fluorophenyl)cyclopropanesulfonamide] the figure was 1 nM. With `CC[C@@H](CN(c1ccccc1F)S(=O)(=O)C1CC1)N1C(=O)[C@@H](CC(=O)NS(C)(=O)=O)O[C@H](c2cccc(Cl)c2)[C@H]1c1ccc(Cl)cc1` (single isomer, unassigned) [Example 240, 2-((2R,5R,6R)-6-(3-chlorophenyl)-5-(4-chlorophenyl)-4-((S)-1-(N-(2-fluorophenyl)cyclopropanesulfonamido)butan-2-yl)-3-oxomorpholin-2-yl)-N-(methylsulfonyl)acetamide or 2-((2S,5R,6R)-6-(3-chlorophenyl)-5-(4-chlorophenyl)-4-((S)-1-(N-(2-fluorophenyl)cyclopropanesulfonamido)butan-2-yl)-3-oxomorpholin-2-yl)-N-(methylsulfonyl)acetamide] the figure was 11 nM. `O=C(O)C[C@H]1O[C@H](c2cccc(Cl)c2)[C@@H](c2ccc(Cl)cc2)N([C@H](CN(c2ccccc2F)S(=O)(=O)C2CC2)C2CC2)C1=O` (single isomer, unassigned) [Example 159, 2-((2R,5R,6R)-6-(3-chlorophenyl)-5-(4-chlorophenyl)-4-((S)-1-cyclopropyl-2-(N-(2-fluorophenyl)cyclopropanesulfonamido)ethyl)-3-oxomorpholin-2-yl)acetic acid or 2-((2S,5R,6R)-6-(3-chlorophenyl)-5-(4-chlorophenyl)-4-((S)-1-cyclopropyl-2-(N-(2-fluorophenyl)cyclopropanesulfonamido)ethyl)-3-oxomorpholin-2-yl)acetic acid] yielded an IC50 of less than 1 nM.
